Test results reported in ChEMBL document CHEMBL5724806, “Unraveling interindividual differences and functional consequences of gut microbial metabolism of immunosuppressants” (2024).

How the values were obtained:
Format in all cases: ADME
[1] = The drug is tested on Bacteroides vulgatus strain: DSM1447 for biotransformation under anaerobic condition. The drug concentrations were measured over 6 timepoints collected between 0 and 12 hours of incubation by liquid-chromatography-coupled mass spectrometry (LC–MS); parameters: dose 5 uM, timepoint 0, 1.5, 3, 6, 9, 12 hours; details: phocaeicola vulgatus, 5 µM
[2] = The drug is tested on Eubacterium rectale strain: DSM17629 for biotransformation under anaerobic condition. The drug concentrations were measured over 6 timepoints collected between 0 and 12 hours of incubation by liquid-chromatography-coupled mass spectrometry (LC–MS); parameters: dose 5 uM, timepoint 0, 1.5, 3, 6, 9, 12 hours; details: agathobacter rectalis, 5 µM
[3] = (§1) The drug is tested on the gut metagenome community of T-02 with ENA study accession number: PRJEB31790 for biotransformation under microaerobic condition. The drug concentrations were measured over 7 timepoints collected between 0 and 12 hours of incubation by liquid-chromatography-coupled mass spectrometry (LC–MS); parameters: dose 5 uM, timepoint 0, 0.75, 1.5, 3, 6, 9, 12 hours; details: 5 µM
[4] = as §1, with “P-03” for “T-02”, “anaerobic” for “microaerobic”; parameters: dose 5 uM, timepoint 0, 0.75, 1.5, 3, 6, 9, 12 hours; details: 5 µM
[5] = as §1, with “A-03” for “T-02”, “anaerobic” for “microaerobic”; parameters: dose 5 uM, timepoint 0, 0.75, 1.5, 3, 6, 9, 12 hours; details: 5 µM
[6] = The drug is tested on Streptococcus anginosus strain: DSM20563 for biotransformation under anaerobic condition. The drug concentrations were measured over 6 timepoints collected between 0 and 12 hours of incubation by liquid-chromatography-coupled mass spectrometry (LC–MS); parameters: dose 5 uM, timepoint 0, 1.5, 3, 6, 9, 12 hours; details: 5 µM
[7] = The drug is tested on Lactobacillus paracasei strain: ATCC27092 for biotransformation under anaerobic condition. The drug concentrations were measured over 6 timepoints collected between 0 and 12 hours of incubation by liquid-chromatography-coupled mass spectrometry (LC–MS); parameters: dose 5 uM, timepoint 0, 1.5, 3, 6, 9, 12 hours; details: lacticaseibacillus paracasei, 5 µM
[8] = The drug is tested on Parabacteroides distasonis strain: DSM20701 for biotransformation under anaerobic condition. The drug concentrations were measured over 6 timepoints collected between 0 and 12 hours of incubation by liquid-chromatography-coupled mass spectrometry (LC–MS); parameters: dose 5 uM, timepoint 0, 1.5, 3, 6, 9, 12 hours; details: 5 µM
[9] = The drug is tested on Faecalibacterium prausnitzii strain: DSM17677 for biotransformation under anaerobic condition. The drug concentrations were measured over 6 timepoints collected between 0 and 12 hours of incubation by liquid-chromatography-coupled mass spectrometry (LC–MS); parameters: dose 5 uM, timepoint 0, 1.5, 3, 6, 9, 12 hours; details: faecalibacterium duncaniae, 5 µM
[10] = as §1, with “A-02” for “T-02”, “anaerobic” for “microaerobic”; parameters: dose 5 uM, timepoint 0, 0.75, 1.5, 3, 6, 9, 12 hours; details: 5 µM
[11] = as §1, with “A-09” for “T-02”; parameters: dose 5 uM, timepoint 0, 0.75, 1.5, 3, 6, 9, 12 hours; details: 5 µM
[12] = as §1, with “A-07” for “T-02”, “anaerobic” for “microaerobic”; parameters: dose 5 uM, timepoint 0, 0.75, 1.5, 3, 6, 9, 12 hours; details: 5 µM
[13] = The drug is tested on Bacteroides uniformis strain: DSM6597 for biotransformation under anaerobic condition. The drug concentrations were measured over 6 timepoints collected between 0 and 12 hours of incubation by liquid-chromatography-coupled mass spectrometry (LC–MS); parameters: dose 5 uM, timepoint 0, 1.5, 3, 6, 9, 12 hours; details: 5 µM
[14] = as §1, with “A-01” for “T-02”; parameters: dose 5 uM, timepoint 0, 0.75, 1.5, 3, 6, 9, 12 hours; details: 5 µM
[15] = The drug is tested on Bacteroides fragilis strain: DSM2151 for biotransformation under anaerobic condition. The drug concentrations were measured over 6 timepoints collected between 0 and 12 hours of incubation by liquid-chromatography-coupled mass spectrometry (LC–MS); parameters: dose 5 uM, timepoint 0, 1.5, 3, 6, 9, 12 hours; details: 5 µM
[16] = as §1, with “T-05” for “T-02”, “anaerobic” for “microaerobic”; parameters: dose 5 uM, timepoint 0, 0.75, 1.5, 3, 6, 9, 12 hours; details: 5 µM
[17] = The drug is tested on Streptococcus salivarius strain: DSM20560 for biotransformation under microaerobic condition. The drug concentrations were measured over 6 timepoints collected between 0 and 12 hours of incubation by liquid-chromatography-coupled mass spectrometry (LC–MS); parameters: dose 5 uM, timepoint 0, 1.5, 3, 6, 9, 12 hours; details: 5 µM
[18] = The drug is tested on Gemella morbillorum strain: DSM20572 for biotransformation under microaerobic condition. The drug concentrations were measured over 6 timepoints collected between 0 and 12 hours of incubation by liquid-chromatography-coupled mass spectrometry (LC–MS); parameters: dose 5 uM, timepoint 0, 1.5, 3, 6, 9, 12 hours; details: 5 µM
[19] = The drug is tested on Lactobacillus gasseri strain: DSM20243 for biotransformation under microaerobic condition. The drug concentrations were measured over 6 timepoints collected between 0 and 12 hours of incubation by liquid-chromatography-coupled mass spectrometry (LC–MS); parameters: dose 5 uM, timepoint 0, 1.5, 3, 6, 9, 12 hours; details: 5 µM
[20] = as §1, with “T-03” for “T-02”; parameters: dose 5 uM, timepoint 0, 0.75, 1.5, 3, 6, 9, 12 hours; details: 5 µM
[21] = The drug is tested on Streptococcus mitis strain: DSM12643 for biotransformation under microaerobic condition. The drug concentrations were measured over 6 timepoints collected between 0 and 12 hours of incubation by liquid-chromatography-coupled mass spectrometry (LC–MS); parameters: dose 5 uM, timepoint 0, 1.5, 3, 6, 9, 12 hours; details: 5 µM
[22] = The drug is tested on Lactobacillus ruminis strain: ATCC25644 for biotransformation under anaerobic condition. The drug concentrations were measured over 6 timepoints collected between 0 and 12 hours of incubation by liquid-chromatography-coupled mass spectrometry (LC–MS); parameters: dose 5 uM, timepoint 0, 1.5, 3, 6, 9, 12 hours; details: ligilactobacillus ruminis, 5 µM
[23] = The drug is tested on Lactobacillus reuteri strain: DSM20016 for biotransformation under anaerobic condition. The drug concentrations were measured over 6 timepoints collected between 0 and 12 hours of incubation by liquid-chromatography-coupled mass spectrometry (LC–MS); parameters: dose 5 uM, timepoint 0, 1.5, 3, 6, 9, 12 hours; details: limosilactobacillus reuteri, 5 µM
[24] = The drug is tested on Bifidobacterium longum strain: DSM20088 for biotransformation under microaerobic condition. The drug concentrations were measured over 6 timepoints collected between 0 and 12 hours of incubation by liquid-chromatography-coupled mass spectrometry (LC–MS); parameters: dose 5 uM, timepoint 0, 1.5, 3, 6, 9, 12 hours; details: 5 µM
[25] = The drug is tested on Capnocytophaga ochracea strain: DSM7271 for biotransformation under anaerobic condition. The drug concentrations were measured over 6 timepoints collected between 0 and 12 hours of incubation by liquid-chromatography-coupled mass spectrometry (LC–MS); parameters: dose 5 uM, timepoint 0, 1.5, 3, 6, 9, 12 hours; details: 5 µM
[26] = as §1, with “T-04” for “T-02”; parameters: dose 5 uM, timepoint 0, 0.75, 1.5, 3, 6, 9, 12 hours; details: 5 µM
[27] = as §1, with “P-04” for “T-02”, “anaerobic” for “microaerobic”; parameters: dose 5 uM, timepoint 0, 0.75, 1.5, 3, 6, 9, 12 hours; details: 5 µM
[28] = The drug is tested on Bacteroides thetaiotaomicron strain: DSM2079 for biotransformation under anaerobic condition. The drug concentrations were measured over 6 timepoints collected between 0 and 12 hours of incubation by liquid-chromatography-coupled mass spectrometry (LC–MS); parameters: dose 5 uM, timepoint 0, 1.5, 3, 6, 9, 12 hours; details: 5 µM
[29] = The drug is tested on Bacteroides ovatus strain: ATCC 8483 for biotransformation under anaerobic condition. The drug concentrations were measured over 6 timepoints collected between 0 and 12 hours of incubation by liquid-chromatography-coupled mass spectrometry (LC–MS); parameters: dose 5 uM, timepoint 0, 1.5, 3, 6, 9, 12 hours; details: 5 µM
[30] = The drug is tested on Streptococcus anginosus strain: DSM20563 for biotransformation under microaerobic condition. The drug concentrations were measured over 6 timepoints collected between 0 and 12 hours of incubation by liquid-chromatography-coupled mass spectrometry (LC–MS); parameters: dose 5 uM, timepoint 0, 1.5, 3, 6, 9, 12 hours; details: 5 µM

SMILES	Bacterial Biotransformation [1]	Bacterial Biotransformation [2]	Bacterial Biotransformation [3]	Bacterial Biotransformation [4]	Bacterial Biotransformation [5]	Bacterial Biotransformation [6]	Bacterial Biotransformation [7]	Bacterial Biotransformation [8]	Bacterial Biotransformation [9]	Bacterial Biotransformation [10]	Bacterial Biotransformation [11]	Bacterial Biotransformation [12]	Bacterial Biotransformation [13]	Bacterial Biotransformation [14]	Bacterial Biotransformation [15]	Bacterial Biotransformation [16]	Bacterial Biotransformation [17]	Bacterial Biotransformation [18]	Bacterial Biotransformation [19]	Bacterial Biotransformation [20]	further results
C[C@]12C=CC(=O)C=C1CC[C@@H]1[C@@H]2[C@@H](O)C[C@@]2(C)[C@H]1CC[C@]2(O)C(=O)CO [PREDNISOLONE]	Compound NOT metabolized	Compound NOT metabolized	Compound metabolized	Compound metabolized	Compound metabolized	Compound NOT metabolized	Compound NOT metabolized	Compound NOT metabolized	Compound NOT metabolized	Compound metabolized	Compound metabolized	Compound metabolized	Compound NOT metabolized	Compound metabolized	Compound NOT metabolized	Compound NOT metabolized	Compound NOT metabolized	Compound NOT metabolized	Compound NOT metabolized	Compound NOT metabolized	Bacterial Biotransformation [21]: Compound NOT metabolized; Bacterial Biotransformation [22]: Compound NOT metabolized; Bacterial Biotransformation [23]: Compound NOT metabolized; Bacterial Biotransformation [24]: Compound NOT metabolized; Bacterial Biotransformation [25]: Compound NOT metabolized; Bacterial Biotransformation [26]: Compound NOT metabolized; Bacterial Biotransformation [27]: Compound metabolized; Bacterial Biotransformation [28]: Compound NOT metabolized; Bacterial Biotransformation [29]: Compound NOT metabolized; Bacterial Biotransformation [30]: Compound NOT metabolized
C[C@]12C=CC(=O)C=C1CC[C@@H]1[C@@H]2C(=O)C[C@@]2(C)[C@H]1CC[C@]2(O)C(=O)CO [PREDNISONE]	Compound NOT metabolized	Compound NOT metabolized	Compound metabolized	Compound metabolized	Compound metabolized	Compound NOT metabolized	Compound NOT metabolized	Compound NOT metabolized	Compound metabolized	Compound metabolized	Compound metabolized	Compound metabolized	Compound NOT metabolized	Compound metabolized	Compound NOT metabolized	Compound metabolized	Compound NOT metabolized	Compound NOT metabolized	Compound NOT metabolized	Compound NOT metabolized	Bacterial Biotransformation [21]: Compound NOT metabolized; Bacterial Biotransformation [22]: Compound NOT metabolized; Bacterial Biotransformation [23]: Compound NOT metabolized; Bacterial Biotransformation [24]: Compound NOT metabolized; Bacterial Biotransformation [25]: Compound NOT metabolized; Bacterial Biotransformation [26]: Compound NOT metabolized; Bacterial Biotransformation [27]: Compound metabolized; Bacterial Biotransformation [28]: Compound NOT metabolized; Bacterial Biotransformation [29]: Compound NOT metabolized; Bacterial Biotransformation [30]: Compound NOT metabolized
CNC(=C[N+](=O)[O-])NCCSCc1ccc(CN(C)C)o1 [RANITIDINE]	Compound NOT metabolized	Compound NOT metabolized	Compound NOT metabolized	Compound metabolized	Compound metabolized	Compound NOT metabolized	Compound NOT metabolized	Compound NOT metabolized	Compound NOT metabolized	Compound metabolized	Compound metabolized	Compound NOT metabolized	Compound NOT metabolized	Compound NOT metabolized	Compound NOT metabolized	Compound NOT metabolized	Compound NOT metabolized	Compound NOT metabolized	Compound NOT metabolized	Compound NOT metabolized	Bacterial Biotransformation [21]: Compound metabolized; Bacterial Biotransformation [22]: Compound NOT metabolized; Bacterial Biotransformation [23]: Compound NOT metabolized; Bacterial Biotransformation [24]: Compound NOT metabolized; Bacterial Biotransformation [25]: Compound NOT metabolized; Bacterial Biotransformation [26]: Compound NOT metabolized; Bacterial Biotransformation [27]: Compound NOT metabolized; Bacterial Biotransformation [28]: Compound NOT metabolized; Bacterial Biotransformation [29]: Compound metabolized; Bacterial Biotransformation [30]: Compound NOT metabolized
